Assay results from patent publication US20260262643A1, “HERBICIDAL BENZOXAZINES” (FMC CORPORATION, priority 2022, published 2026).

What was measured:
[1] = test system: oat, wild; experiment: Test C postemergence; format: in vivo, Avena fatua; conditions: 10 days
In short: (§1)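 Visual injury ratings on a 0–100 scale (100 = complete control) were made against untreated controls 10 days after treatment in the greenhouse. Compounds, formulated with surfactant in non-phytotoxic solvent, were sprayed on soil preemergence or onto one- to two-leaf plants 2–10 cm tall postemergence.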

[2] = test system: corn; experiment: Test C postemergence; format: in vivo, Zea mays; conditions: 10 days
In short: as §1

[3] = test system: green foxtail; experiment: Test C postemergence; format: in vivo, Setaria viridis; conditions: 10 days
In short: as §1

[4] = test system: corn; experiment: Test C preemergence; format: in vivo, Zea mays; conditions: for Corn plant response rating: preemergence; for Plant response rating, Corn: Preemergence
In short: as §1

[5] = test system: ragweed; experiment: Test C postemergence; format: in vivo, Ambrosia artemisiifolia; conditions: 10 days
In short: as §1

[6] = test system: kochia; experiment: Test C preemergence; format: in vivo, Bassia scoparia; conditions: for Kochia plant response rating: preemergence; for Plant response rating, Kochia: Preemergence
In short: as §1

[7] = test system: green foxtail; experiment: Test C preemergence; format: in vivo, Setaria viridis; conditions: for Foxtail, Green plant response rating: preemergence; for Plant response rating, Foxtail, Green: Preemergence
In short: as §1

[8] = test system: ryegrass, Italian; experiment: Test C postemergence; format: in vivo, Lolium multiflorum; conditions: 10 days
In short: as §1

[9] = test system: barnyardgrass; experiment: Test D flooded paddy test; format: in vivo, Echinochloa crus-galli; conditions: 250 g ai/ha, applied to paddy water, visual rating after 13 to 14 days, scale 0 to 100 (0 no effect, 100 complete control)
In short: (§2)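 Plants grown to the 2-leaf stage; pots flooded to 3 cm above soil at treatment and held at that depth throughout. Test compounds applied directly to the paddy water. After 13 to 14 days in a greenhouse, response was rated visually versus controls on a 0 (no effect) to 100 (complete control) scale.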

[10] = test system: rice; experiment: Test D flooded paddy test; format: in vivo, Oryza sativa; conditions: 250 g ai/ha, applied to paddy water, visual rating after 13 to 14 days, scale 0 to 100 (0 no effect, 100 complete control)
In short: as §2

[11] = test system: oat, wild; experiment: Test C preemergence; format: in vivo, Avena fatua; conditions: for Oat, Wild plant response rating: preemergence; for Plant response rating, Oat, Wild: Preemergence
In short: as §1

[12] = test system: soybean; experiment: Test C preemergence; format: in vivo, Glycine max; conditions: for Soybean plant response rating: preemergence; for Plant response rating, Soybean: Preemergence
In short: as §1

[13] = test system: sedge, umbrella; experiment: Test D flooded paddy test; format: in vivo, Cyperus difformis; conditions: 250 g ai/ha, applied to paddy water, visual rating after 13 to 14 days, scale 0 to 100 (0 no effect, 100 complete control)
In short: as §2

[14] = test system: ryegrass, Italian; experiment: Test C preemergence; format: in vivo, Lolium multiflorum; conditions: for Ryegrass, Italian plant response rating: preemergence; for Plant response rating, Ryegrass, Italian: Preemergence
In short: as §1

[15] = test system: barnyardgrass; experiment: Test C postemergence; format: in vivo, Echinochloa crusgalli; conditions: 10 days
In short: as §1

[16] = test system: soybean; experiment: Test C postemergence; format: in vivo, Glycine max; conditions: 10 days
In short: as §1

[17] = test system: galium; experiment: Test C postemergence; format: in vivo, Galium aparine; conditions: 10 days
In short: as §1

[18] = test system: ragweed; experiment: Test C preemergence; format: in vivo, Ambrosia artemisiifolia; conditions: for Ragweed plant response rating: preemergence; for Plant response rating, Ragweed: Preemergence
In short: as §1

[19] = test system: pigweed, palmer; experiment: Test C preemergence; format: in vivo, Amaranthus palmeri; conditions: for Pigweed, Palmer plant response rating: preemergence; for Plant response rating, Pigweed, Palmer: Preemergence
In short: as §1

[20] = test system: horseweed; experiment: Test C postemergence; format: in vivo, Erigeron canadensis; conditions: 10 days
In short: as §1

[21] = test system: wheat; experiment: Test C postemergence; format: in vivo, Triticum aestivum; conditions: 10 days
In short: as §1

[22] = test system: kochia; experiment: Test C postemergence; format: in vivo, Bassia scoparia; conditions: 10 days
In short: as §1

[23] = test system: blackgrass; experiment: Test C preemergence; format: in vivo, Alopecurus myosuroides; conditions: for Blackgrass plant response rating: preemergence; for Plant response rating, Blackgrass: Preemergence
In short: as §1

[24] = test system: wheat; experiment: Test C preemergence; format: in vivo, Triticum aestivum; conditions: for Wheat plant response rating: preemergence; for Plant response rating, Wheat: Preemergence
In short: as §1

[25] = test system: barnyardgrass; experiment: Test C preemergence; format: in vivo, Echinochloa crusgalli; conditions: for Barnyardgrass plant response rating: preemergence; for Plant response rating, Barnyardgrass: Preemergence
In short: as §1

[26] = test system: pigweed, palmer; experiment: Test C postemergence; format: in vivo, Amaranthus palmeri; conditions: 10 days
In short: as §1

[27] = test system: blackgrass; experiment: Test C postemergence; format: in vivo, Alopecurus myosuroides; conditions: 10 days
In short: as §1

[28] = test system: ducksalad; experiment: Test D flooded paddy test; format: in vivo, Heteranthera limosa; conditions: 250 g ai/ha, applied to paddy water, visual rating after 13 to 14 days, scale 0 to 100 (0 no effect, 100 complete control)
In short: as §2

[29] = 500 g ai/ha, postemergence, 0 to 100 scale (0 no effect, 100 complete control)
[30] = Postemergence, 125 g ai/ha, 0 to 100 scale (0 no effect, 100 complete control)
[31] = 500 g ai/ha, 0 to 100 scale (0 no effect, 100 complete control)
[32] = 125 g ai/ha, 0 to 100 scale, 0 no effect, 100 complete control
[33] = 125 g ai/ha, postemergence, 0 to 100 scale, 0 no effect, 100 complete control
[34] = Postemergence, 500 g ai/ha, visual 0 to 100 scale (0 no effect, 100 complete control)
[35] = 500 g ai/ha, visual rating after 10 days, 0 to 100 scale (0 no effect, 100 complete control)
[36] = Test C, 125 g ai/ha, 0 to 100 scale (0 no effect, 100 complete control)

COC[C@H]1CN(C(=O)c2cc(-n3cnc(C(C)C)n3)cc3c2OCCO3)c2cccc(Cl)c2O1 [Compound 395]
60: Plant response rating, Oat, Wild [1, 29] | Plant response rating, Ryegrass, Italian [8, 30] | Plant response rating, Horseweed [20, 29]
90: Plant response rating, Corn [2, 29] | Oat, Wild plant response rating [11, 31] | Ryegrass, Italian plant response rating [14, 31] | Ragweed plant response rating [18, 31] | Plant response rating, Ragweed [18, 32] | Plant response rating, Kochia [22, 30] | Blackgrass plant response rating [23, 31] | Plant response rating, Pigweed, Palmer [26, 30] | Plant response rating, Blackgrass [27, 29]
30: Plant response rating, Corn [4, 32] | Plant response rating, Wheat [24, 32]
100: Kochia plant response rating [6, 31] | Plant response rating, Kochia [6, 32] | Foxtail, Green plant response rating [7, 31] | Plant response rating, Foxtail, Green [7, 32] | Soybean plant response rating [12, 31] | Plant response rating, Soybean [16, 30] | Plant response rating, Galium [17, 29] | Plant response rating, Galium [17, 30] | Pigweed, Palmer plant response rating [19, 31] | Plant response rating, Pigweed, Palmer [19, 32] | Plant response rating, Kochia [22, 29] | Barnyardgrass plant response rating [25, 31] | Plant response rating, Pigweed, Palmer [26, 29]
0: Plant response rating, Barnyardgrass (Flood) [9] | Plant response rating, Rice (Flood) [10] | Plant response rating, Sedge, Umbrella (Flood) [13] | Plant response rating, Ducksalad (Flood) [28]
40: Plant response rating, Barnyardgrass [15, 30] | Plant response rating, Wheat [21, 30] | Plant response rating, Blackgrass [27, 30]
50: Plant response rating, Oat, Wild [1, 30] | Corn plant response rating [4, 31] | Plant response rating, Oat, Wild [11, 32] | Plant response rating, Horseweed [20, 30] | Plant response rating, Blackgrass [23, 32]
80: Plant response rating, Foxtail, Green [3, 29] | Plant response rating, Ryegrass, Italian [14, 32] | Wheat plant response rating [24, 31] | Plant response rating, Barnyardgrass [25, 32]
70: Plant response rating, Corn [2, 30] | Plant response rating, Foxtail, Green [3, 30] | Plant response rating, Ragweed [5, 30] | Plant response rating, Soybean [12, 32] | Plant response rating, Barnyardgrass [15, 29]

C[C@H]1CN(C(=O)c2cccc(-n3cnc(C(C)(C)O)n3)c2)c2cccc(Cl)c2O1 [Compound 169]
70: Plant response rating, Barnyardgrass [15, 34] | Plant response rating, Pigweed, Palmer [26, 33]
80: Plant response rating, Oat, Wild [1, 33] | Plant response rating, Corn [2, 33] | Oat, Wild plant response rating [11, 36] | Barnyardgrass plant response rating ([25]; 125 g ai/ha, 0 to 100 scale (0 no effect, 100 complete control))
90: Plant response rating, Oat, Wild [1, 34] | Plant response rating, Corn [2, 34] | Plant response rating, Foxtail, Green [3, 34] | Plant response rating, Ragweed [5, 34] | Plant response rating, Oat, Wild [11, 35] | Plant response rating, Soybean [12, 35] | Soybean plant response rating [12, 36] | Ryegrass, Italian plant response rating [14, 36] | Plant response rating, Wheat [21, 34] | Plant response rating, Kochia [22, 33] | Plant response rating, Kochia [22, 34] | Plant response rating, Blackgrass [23, 35] | Blackgrass plant response rating [23, 36] | Plant response rating, Wheat [24, 35] | Plant response rating, Pigweed, Palmer [26, 34] | Plant response rating, Blackgrass [27, 33] | Plant response rating, Ducksalad (Flood) [28]
6: Plant response rating, Wheat [21, 33]
100: Plant response rating, Kochia [6, 35] | Kochia plant response rating [6, 36] | Plant response rating, Foxtail, Green [7, 35] | Foxtail, Green plant response rating [7, 36] | Plant response rating, Ryegrass, Italian [8, 34] | Plant response rating, Ryegrass, Italian [14, 35] | Plant response rating, Soybean [16, 33] | Plant response rating, Soybean [16, 34] | Plant response rating, Galium [17, 33] | Plant response rating, Galium [17, 34] | Plant response rating, Ragweed [18, 35] | Plant response rating, Pigweed, Palmer [19, 35] | Pigweed, Palmer plant response rating [19, 36] | Plant response rating, Barnyardgrass [25, 35] | Plant response rating, Blackgrass [27, 34]
20: Plant response rating, Barnyardgrass [15, 33]
40: Plant response rating, Corn [4, 35] | Plant response rating, Horseweed [20, 34]
60: Plant response rating, Ryegrass, Italian [8, 33]
0: Corn plant response rating [4, 36] | Plant response rating, Barnyardgrass (Flood) [9] | Plant response rating, Rice (Flood) [10] | Plant response rating, Horseweed [20, 33]
85: Plant response rating, Sedge, Umbrella (Flood) [13]
30: Plant response rating, Foxtail, Green [3, 33] | Wheat plant response rating [24, 36]
50: Plant response rating, Ragweed [5, 33] | Ragweed plant response rating [18, 36]
